Test results published in the OligoGym collection.
Where “and” joins values, the source holds several entries; their conditions need not be identical. Equal values may be shown once. After the bases stand the sugars from the 5' end (letter, count) and the backbone: PS all phosphorothioate, else s phosphorothioate and o phosphodiester by linkage. Methylation of C is not given here. k = constrained ethyl (cEt); d = 2'-deoxy (DNA)

Molecular target: MALAT1
Conditions: ASO, A431, 0.005 µM

Sequence	target mRNA inhibition
ATGAAATGCCTCTGCA (sugars k3 d10 k3, PS)	13%
ATGGACATTGCCTCTT (sugars k3 d10 k3, PS)	37%
GACAGCTAAGATAGCA (sugars k3 d10 k3, PS)	12%
TGCCTTTAGGATTCTA (sugars k3 d10 k3, PS)	45%
CTGTTTAAGTCACCTT (sugars k3 d10 k3, PS)	76% and 61%
GCATATGCAGATAATG (sugars k3 d10 k3, PS)	36%
CTCCCCCAACTGCTTG (sugars k3 d10 k3, PS)	22%
TGCCATGGTTGATATT (sugars k3 d10 k3, PS)	37%
GGGTACTTCAAGCATT (sugars k3 d10 k3, PS)	43%
AACATAGTTCAACCCA (sugars k3 d10 k3, PS)	12%
CGTCATGGATTTCAAG (sugars k3 d10 k3, PS)	40%
CAGTCCTAGCTTCATC (sugars k3 d10 k3, PS)	9%
CAGACCTGAAGTCAAG (sugars k3 d10 k3, PS)	14%
CATATTTAACTTCCCC (sugars k3 d10 k3, PS)	25%
TAGTGTAAAACATTGC (sugars k3 d10 k3, PS)	35%
TAGTTCTTCGGTTAAA (sugars k3 d10 k3, PS)	6%
TCCCCCCCAAGATTGC (sugars k3 d10 k3, PS)	-3%
GCCTCCTCCGTGTGGT (sugars k3 d10 k3, PS)	-1%
GATTTTTACCAACCAC (sugars k3 d10 k3, PS)	42%
GCATGTAAGAATTAAG (sugars k3 d10 k3, PS)	28%
AAAACTCCCCCCCGCC (sugars k3 d10 k3, PS)	-4%
GCTGTCTTCCTAGATT (sugars k3 d10 k3, PS)	36%
CACCTTCCGCCGCCTC (sugars k3 d10 k3, PS)	28%

Sequence	target mRNA inhibition
CTATATAAGGTCAATA (sugars k3 d10 k3, PS)	16%
TCATGGATTTCAAGGT (sugars k3 d10 k3, PS)	51%
TCCAGTCCCTGAAGGT (sugars k3 d10 k3, PS)	12%
TGGTACACCCAGTGGC (sugars k3 d10 k3, PS)	17%
AAGTAGTTCTTCGGTT (sugars k3 d10 k3, PS)	10%
TTTTTGTGGTTATAGC (sugars k3 d10 k3, PS)	75% and 88%
TACACCTCAGTACGAA (sugars k3 d10 k3, PS)	28%
GCAAGTCCTCATTACT (sugars k3 d10 k3, PS)	50% and 30%
ATCAGAACAGTACTGC (sugars k3 d10 k3, PS)	35%
TGAATTACTTCCGTTA (sugars k3 d10 k3, PS)	36%
CCACGAACTGCTGCTT (sugars k3 d10 k3, PS)	54%
TATTGGTATTAATTCG (sugars k3 d10 k3, PS)	13%
ACAAGTCCTACAATTT (sugars k3 d10 k3, PS)	31%
GATATTTAAGAACTCC (sugars k3 d10 k3, PS)	38%
TGTTCGAGAAATCGGA (sugars k3 d10 k3, PS)	17%
AGACTGTTGCTTGTTT (sugars k3 d10 k3, PS)	1%
CTGGGTCAGCTGTCAA (sugars k3 d10 k3, PS)	33%
TGCAAGGTCTCATACA (sugars k3 d10 k3, PS)	32%
TAGCTTGACAAGCAAT (sugars k3 d10 k3, PS)	12%
GAACTAGTGGTTCCCA (sugars k3 d10 k3, PS)	46%
TAAGCGAATGGCTTTG (sugars k3 d10 k3, PS)	7%
ACTTATCAATTCACCA (sugars k3 d10 k3, PS)	28%
TTATCCCTAACATGCA (sugars k3 d10 k3, PS)	8%

Sequence	target mRNA inhibition
GGAGAGGCCAGTTGCG (sugars k3 d10 k3, PS)	-10%
ATATTGTGCTGTTACC (sugars k3 d10 k3, PS)	-9%
ATCTGATTCTAACAGC (sugars k3 d10 k3, PS)	40%
CCAGTAGGCCAGACCA (sugars k3 d10 k3, PS)	13%
ATTCAATACTATTGTC (sugars k3 d10 k3, PS)	24%
TTTAGGATTCTAGACA (sugars k3 d10 k3, PS)	25%
TATTCCAGGATTAATG (sugars k3 d10 k3, PS)	29%
CCTGCGACTTGCTCCC (sugars k3 d10 k3, PS)	20%
TGCTGATAAACTCACT (sugars k3 d10 k3, PS)	46%
CTGGTACACCCAGTGG (sugars k3 d10 k3, PS)	4%
GATTATGGATCATGCC (sugars k3 d10 k3, PS)	47% and 61%
AACTTATCTGCGGTTT (sugars k3 d10 k3, PS)	6%
GGCAAAATGGCGGACT (sugars k3 d10 k3, PS)	-14%
AGTATCAAATTATGAC (sugars k3 d10 k3, PS)	14%
ATGGAACTTGAATGCA (sugars k3 d10 k3, PS)	1%
GCTACAACAAGTAAGC (sugars k3 d10 k3, PS)	9%
TCAAAATCCTGAATGG (sugars k3 d10 k3, PS)	38%
GTTACTTGCCAACTTG (sugars k3 d10 k3, PS)	63% and 81%
GAAGGATGAAATGCCT (sugars k3 d10 k3, PS)	7%
TCGGTTAAAAATAGGT (sugars k3 d10 k3, PS)	16%
AAGATATTGTGCTGTT (sugars k3 d10 k3, PS)	13%
ATCCCTTCAGGATCAT (sugars k3 d10 k3, PS)	19%
CCAATGGACATCTCTT (sugars k3 d10 k3, PS)	40%

Sequence	target mRNA inhibition
CTCAGTTACACATCCA (sugars k3 d10 k3, PS)	70% and 94%
CAGTCCTTTTAGTAGC (sugars k3 d10 k3, PS)	57%
CTTATCTGCGGTTTCC (sugars k3 d10 k3, PS)	62% and 53%
ATTCAACTGGAAGCTC (sugars k3 d10 k3, PS)	17%
TTAAATGACGCAATTC (sugars k3 d10 k3, PS)	4%
CAAGTTACATGTTCCC (sugars k3 d10 k3, PS)	42%
GGATCCTCTACGCACA (sugars k3 d10 k3, PS)	19%
CCAAAGACCTCGACAC (sugars k3 d10 k3, PS)	13%
CATCAAGGATGTATAT (sugars k3 d10 k3, PS)	-4%
CGCACTGGCTCCTGGA (sugars k3 d10 k3, PS)	49%
TTAGAGGGCCTCTATT (sugars k3 d10 k3, PS)	3%
GCCAACTAATTGCCAA (sugars k3 d10 k3, PS)	33%
GCAATACTGCAGATGC (sugars k3 d10 k3, PS)	-19%
AGCTGCAAACTTTAGA (sugars k3 d10 k3, PS)	26%
TACTATCCCATCACTG (sugars k3 d10 k3, PS)	42%
AAGAGCCAAGCACTCA (sugars k3 d10 k3, PS)	12%
AATGGCGGACTTTCTC (sugars k3 d10 k3, PS)	0%
CCTAACATGCAATACT (sugars k3 d10 k3, PS)	12%
TTGAGGCAAGTCCTCA (sugars k3 d10 k3, PS)	3%
AATCGGAGCAGCACGG (sugars k3 d10 k3, PS)	26%
TTCGCAGACAAAGTTT (sugars k3 d10 k3, PS)	22%
TTATATTAGGTTCTCG (sugars k3 d10 k3, PS)	-6%
GGTTTTATCTAAATAC (sugars k3 d10 k3, PS)	25%

Sequence	target mRNA inhibition
AGACCAACTAAGCGAA (sugars k3 d10 k3, PS)	38%
GTACTATAGCATCTGT (sugars k3 d10 k3, PS)	45%
AGTTACTCCAGCATAA (sugars k3 d10 k3, PS)	31%
ATCAAGGCACTGATCA (sugars k3 d10 k3, PS)	23%
AGGGATTTGAACCCCG (sugars k3 d10 k3, PS)	-3%
TTAAGAGAAGCCCAGG (sugars k3 d10 k3, PS)	24%
TCCCCAATGGAGGTAT (sugars k3 d10 k3, PS)	9%
CACCACGAACTGCTGC (sugars k3 d10 k3, PS)	19%
TTACACCAGTCCTTTT (sugars k3 d10 k3, PS)	37%
AATTTATAGACCCCTG (sugars k3 d10 k3, PS)	4%
TATCTTAGTAACCTAT (sugars k3 d10 k3, PS)	21%
TGCGGTTTCCTCAAGC (sugars k3 d10 k3, PS)	26%
TACGAAACTCCCCCAT (sugars k3 d10 k3, PS)	6%
GCACTGGTACACCCAG (sugars k3 d10 k3, PS)	-9%
TTACAAAACGAATTCA (sugars k3 d10 k3, PS)	10%
CAGGCGAGCTGAGGCT (sugars k3 d10 k3, PS)	7%
TCTTGAAGACTGTTGC (sugars k3 d10 k3, PS)	44%
GTGTTTACACTGCTCT (sugars k3 d10 k3, PS)	6%
TCGCCTCCTCCGTGTG (sugars k3 d10 k3, PS)	33%
TTCCCTATATAAGGTC (sugars k3 d10 k3, PS)	6%
TAGGTATGAGCTTCAG (sugars k3 d10 k3, PS)	4%
ATCAGTAGTAAGAATC (sugars k3 d10 k3, PS)	23%
